We go through three molecules from ChEMBL document CHEMBL1201862, “PubChem BioAssay data set” (2004).

Series [1] has as its target T1, Intestinal-type alkaline phosphatase (Homo sapiens, UniProt P09923). As to the kind of experiment: activation of human intestinal alkaline phosphatase – biochemical, luminescent, uHTS hits, set 2, dose response (AID 488817).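 Also: potency of activators that raise enzyme activity.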 The format is functional.
Series [2] deals with T2, Alkaline phosphatase, tissue-nonspecific isozyme (Homo sapiens, UniProt P05186).
T2 sequence (P05186 whole entry): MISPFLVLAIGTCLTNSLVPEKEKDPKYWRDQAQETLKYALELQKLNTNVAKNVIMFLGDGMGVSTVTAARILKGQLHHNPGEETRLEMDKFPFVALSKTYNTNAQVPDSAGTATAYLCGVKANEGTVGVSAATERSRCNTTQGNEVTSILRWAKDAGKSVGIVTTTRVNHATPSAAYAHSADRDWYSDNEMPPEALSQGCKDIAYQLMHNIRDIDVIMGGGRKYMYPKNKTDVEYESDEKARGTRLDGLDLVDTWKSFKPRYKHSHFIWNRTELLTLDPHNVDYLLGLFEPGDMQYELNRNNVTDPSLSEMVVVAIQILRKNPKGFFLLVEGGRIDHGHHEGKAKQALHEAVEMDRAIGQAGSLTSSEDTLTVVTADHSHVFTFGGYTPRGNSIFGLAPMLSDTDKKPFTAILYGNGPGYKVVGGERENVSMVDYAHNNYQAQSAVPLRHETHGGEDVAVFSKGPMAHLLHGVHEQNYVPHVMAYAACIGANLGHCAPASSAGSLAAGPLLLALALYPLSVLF
The series is described as follows: activation of tissue-nonspecific alkaline phosphatase – biochemical, TNAP isozyme, human IAP uHTS hits, selectivity assay for human IAP activator project, dose response (AID 488886).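 Also: potency of compounds raising TNAP activity as a selectivity check on IAP activators.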 The format is functional.

For series [3], the target named is Intestinal-type alkaline phosphatase (Mus musculus, UniProt P24822). As to the kind of experiment: PubChem AID 488874. In kind it is functional.
Series [4] addresses T1, Intestinal-type alkaline phosphatase. The series is described as follows: human intestinal alkaline phosphatase activators, dose response, biochemical, luminescence, uHTS hits (AID 463120). In kind it is functional.
In series [5] the target is Cytochrome P450 3A4 (Homo sapiens, UniProt P08684).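 Also: CYP3A4 tested as one member of a cytochrome P450 panel screen.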
The nature of series [6]: M. tuberculosis growth inhibition, HTS (AID 449762). The format is functional.
Series [7] is described as follows: microbe, parasite or virus in culture. In kind it is functional. The conditions noted are these: Mycobacterium tuberculosis.
Series [8] has as its target Lysine-specific demethylase 4C (Homo sapiens, UniProt Q9H3R0). As to the kind of experiment: inhibition of JMJD2C H3K9me3 demethylation – biochemical, DELFIA europium, cherry-picked samples, dose response (AID 488835). The format is functional.
The target of series [9] is T3, Hexokinase HKDC1 (Homo sapiens, UniProt Q2TB90).
T3 sequence (Q2TB90 whole entry): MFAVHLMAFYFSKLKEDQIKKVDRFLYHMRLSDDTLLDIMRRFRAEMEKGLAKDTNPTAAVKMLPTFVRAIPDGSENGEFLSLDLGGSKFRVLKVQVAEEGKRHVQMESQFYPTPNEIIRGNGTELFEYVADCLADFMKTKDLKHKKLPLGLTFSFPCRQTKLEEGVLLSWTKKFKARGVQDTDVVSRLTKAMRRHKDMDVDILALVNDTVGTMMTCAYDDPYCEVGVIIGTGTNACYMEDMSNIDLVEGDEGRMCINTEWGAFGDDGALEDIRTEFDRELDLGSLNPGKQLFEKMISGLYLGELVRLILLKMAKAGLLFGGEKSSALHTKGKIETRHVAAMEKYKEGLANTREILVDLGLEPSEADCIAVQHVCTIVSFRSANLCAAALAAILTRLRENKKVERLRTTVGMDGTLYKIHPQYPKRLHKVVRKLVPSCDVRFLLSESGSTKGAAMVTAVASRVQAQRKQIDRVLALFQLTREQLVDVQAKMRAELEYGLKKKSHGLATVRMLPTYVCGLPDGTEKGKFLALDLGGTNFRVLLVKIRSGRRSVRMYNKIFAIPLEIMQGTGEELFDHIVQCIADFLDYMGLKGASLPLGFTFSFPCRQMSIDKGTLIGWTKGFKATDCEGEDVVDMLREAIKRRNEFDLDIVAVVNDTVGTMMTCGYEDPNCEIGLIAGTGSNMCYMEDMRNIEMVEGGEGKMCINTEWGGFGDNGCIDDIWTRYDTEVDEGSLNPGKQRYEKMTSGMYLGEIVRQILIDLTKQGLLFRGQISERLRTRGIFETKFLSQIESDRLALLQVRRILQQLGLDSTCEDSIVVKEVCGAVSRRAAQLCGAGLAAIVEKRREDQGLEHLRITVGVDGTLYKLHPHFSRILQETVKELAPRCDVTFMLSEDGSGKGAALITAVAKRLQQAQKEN
As to the kind of experiment: activation of HKDC1 glucose phosphorylation – biochemical, W721R variant, dose response (AID 504730). The format is functional.

In series [10] the target is T4, Zinc finger protein mex-5 (Caenorhabditis elegans, UniProt Q9XUB2).
T4 sequence (Q9XUB2 whole entry): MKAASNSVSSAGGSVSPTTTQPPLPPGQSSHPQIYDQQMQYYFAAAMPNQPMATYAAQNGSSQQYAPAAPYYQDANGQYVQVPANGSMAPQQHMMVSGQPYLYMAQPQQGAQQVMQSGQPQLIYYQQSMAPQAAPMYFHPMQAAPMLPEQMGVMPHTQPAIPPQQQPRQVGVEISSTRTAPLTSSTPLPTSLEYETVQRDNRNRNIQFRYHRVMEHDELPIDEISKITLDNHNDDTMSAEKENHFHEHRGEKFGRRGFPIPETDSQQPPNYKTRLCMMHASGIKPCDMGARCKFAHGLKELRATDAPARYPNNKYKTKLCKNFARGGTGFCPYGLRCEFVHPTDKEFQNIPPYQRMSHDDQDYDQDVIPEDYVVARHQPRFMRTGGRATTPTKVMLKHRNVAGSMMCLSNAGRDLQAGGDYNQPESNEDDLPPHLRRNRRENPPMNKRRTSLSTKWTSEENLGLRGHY
The series is described as follows: potency of MEX-5 RNA-binding blockers – biochemical, C. elegans, fluorescence polarization, dose response (AID 1960).

Series [11] concerns the target T5, Type-1 angiotensin II receptor (Homo sapiens, UniProt P30556).
T5 sequence (P30556 whole entry): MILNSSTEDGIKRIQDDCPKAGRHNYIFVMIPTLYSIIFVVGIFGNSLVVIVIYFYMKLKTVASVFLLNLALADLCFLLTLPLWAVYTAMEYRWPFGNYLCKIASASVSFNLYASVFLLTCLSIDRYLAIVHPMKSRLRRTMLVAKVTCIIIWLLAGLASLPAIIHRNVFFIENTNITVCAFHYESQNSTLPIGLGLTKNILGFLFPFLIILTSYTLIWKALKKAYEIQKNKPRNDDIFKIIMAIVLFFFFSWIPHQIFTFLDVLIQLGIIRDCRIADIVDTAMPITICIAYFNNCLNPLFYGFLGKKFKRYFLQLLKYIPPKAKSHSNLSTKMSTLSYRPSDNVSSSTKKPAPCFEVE
The series is described as follows: antagonism of angiotensin II type 1 receptor – cell-based, uHTS hits, selectivity assay for APJ receptor antagonist project, dose response (AID 463214).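 Also: antagonist potency against angiotensin II stimulated AT1 response.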 In kind it is functional.

In series [12] the target is Beta-galactosidase (Escherichia coli, UniProt Q8VNN2). The series is described as follows: PubChem AID 485352. The format is functional.
Series [13] addresses T6, RNA-binding protein pos-1 (Caenorhabditis elegans, UniProt G5EF15).
T6 sequence (G5EF15 whole entry): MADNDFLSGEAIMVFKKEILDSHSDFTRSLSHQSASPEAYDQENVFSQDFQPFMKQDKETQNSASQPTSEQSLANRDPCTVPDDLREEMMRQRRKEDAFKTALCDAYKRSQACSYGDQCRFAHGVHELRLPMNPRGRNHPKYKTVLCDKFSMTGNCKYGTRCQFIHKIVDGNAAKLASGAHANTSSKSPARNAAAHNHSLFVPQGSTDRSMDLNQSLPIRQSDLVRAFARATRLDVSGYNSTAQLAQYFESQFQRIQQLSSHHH
As to the kind of experiment: disruptors of C. elegans POS-1 RNA interaction – biochemical, fluorescence polarization, dose response (AID 1964).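 Also: purified POS-1 fused to maltose binding protein made in E. coli; potency of compounds blocking POS-1 binding to fluorescent RNA.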 Background: Fluorescence polarisation rises when a labelled molecule tumbles more slowly, as on binding a larger partner.

The target of series [14] is Lysine-specific demethylase 4A (Homo sapiens, UniProt O75164). The series is described as follows: inhibition of JMJD2A H3K9me3 demethylation – biochemical, DELFIA europium, cherry-picked samples, selectivity assay for GASC-1 inhibitor project, dose response (AID 488840).
Series [15] concerns the target T7, Hexokinase-1 (Homo sapiens, UniProt P19367).
T7 sequence (P19367 whole entry): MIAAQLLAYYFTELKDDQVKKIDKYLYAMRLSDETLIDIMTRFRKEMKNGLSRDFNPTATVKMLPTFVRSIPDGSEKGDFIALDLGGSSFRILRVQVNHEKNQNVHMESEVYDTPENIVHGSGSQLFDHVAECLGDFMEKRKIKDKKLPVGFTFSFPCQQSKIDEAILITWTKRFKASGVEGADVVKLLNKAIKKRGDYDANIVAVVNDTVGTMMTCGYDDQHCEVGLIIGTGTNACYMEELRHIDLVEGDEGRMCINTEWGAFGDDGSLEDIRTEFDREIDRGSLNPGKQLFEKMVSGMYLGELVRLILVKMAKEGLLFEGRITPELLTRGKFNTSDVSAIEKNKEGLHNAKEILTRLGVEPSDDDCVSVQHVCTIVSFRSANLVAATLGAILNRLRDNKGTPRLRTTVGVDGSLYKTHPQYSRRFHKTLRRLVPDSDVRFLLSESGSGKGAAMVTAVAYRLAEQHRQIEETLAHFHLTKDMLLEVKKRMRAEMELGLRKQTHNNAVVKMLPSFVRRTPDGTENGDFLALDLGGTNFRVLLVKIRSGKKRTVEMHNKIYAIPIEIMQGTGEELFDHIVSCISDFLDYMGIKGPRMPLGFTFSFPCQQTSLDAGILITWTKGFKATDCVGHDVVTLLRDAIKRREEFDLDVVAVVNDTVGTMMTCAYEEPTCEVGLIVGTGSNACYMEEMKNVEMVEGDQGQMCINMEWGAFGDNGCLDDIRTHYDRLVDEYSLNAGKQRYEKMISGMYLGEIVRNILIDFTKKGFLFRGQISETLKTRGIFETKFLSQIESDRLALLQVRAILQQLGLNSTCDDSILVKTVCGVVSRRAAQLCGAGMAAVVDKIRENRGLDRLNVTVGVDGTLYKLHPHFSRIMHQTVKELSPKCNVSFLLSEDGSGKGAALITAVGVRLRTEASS
The series is described as follows: HK1 enzyme activation by HKDC1 hits – biochemical, selectivity assay for HKDC1 activator project, dose response (AID 504762). The format is functional.

Calls of active or inactive are those of the source.

What is called EC50 is the midpoint of the concentration-response curve. A word on the IC50: it is the concentration needed to halve the response being measured. In general, AC50 refers to the midpoint of the concentration-response curve, whichever way the signal moves.

T1 sequence (P09923 whole entry): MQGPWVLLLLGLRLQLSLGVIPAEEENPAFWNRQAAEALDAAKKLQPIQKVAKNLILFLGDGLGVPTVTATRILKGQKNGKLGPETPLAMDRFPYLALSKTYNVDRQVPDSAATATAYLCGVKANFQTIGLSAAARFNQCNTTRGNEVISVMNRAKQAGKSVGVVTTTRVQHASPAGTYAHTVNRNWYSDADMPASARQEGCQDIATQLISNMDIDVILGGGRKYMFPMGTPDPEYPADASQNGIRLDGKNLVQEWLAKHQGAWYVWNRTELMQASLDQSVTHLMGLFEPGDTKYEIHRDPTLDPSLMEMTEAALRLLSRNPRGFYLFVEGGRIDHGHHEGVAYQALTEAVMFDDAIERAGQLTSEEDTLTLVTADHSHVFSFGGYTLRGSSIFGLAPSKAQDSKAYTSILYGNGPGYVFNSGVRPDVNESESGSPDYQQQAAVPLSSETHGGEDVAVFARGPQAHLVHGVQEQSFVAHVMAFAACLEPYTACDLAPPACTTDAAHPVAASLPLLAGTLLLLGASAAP
Lysine-specific demethylase 4A, sequence (O75164 whole entry): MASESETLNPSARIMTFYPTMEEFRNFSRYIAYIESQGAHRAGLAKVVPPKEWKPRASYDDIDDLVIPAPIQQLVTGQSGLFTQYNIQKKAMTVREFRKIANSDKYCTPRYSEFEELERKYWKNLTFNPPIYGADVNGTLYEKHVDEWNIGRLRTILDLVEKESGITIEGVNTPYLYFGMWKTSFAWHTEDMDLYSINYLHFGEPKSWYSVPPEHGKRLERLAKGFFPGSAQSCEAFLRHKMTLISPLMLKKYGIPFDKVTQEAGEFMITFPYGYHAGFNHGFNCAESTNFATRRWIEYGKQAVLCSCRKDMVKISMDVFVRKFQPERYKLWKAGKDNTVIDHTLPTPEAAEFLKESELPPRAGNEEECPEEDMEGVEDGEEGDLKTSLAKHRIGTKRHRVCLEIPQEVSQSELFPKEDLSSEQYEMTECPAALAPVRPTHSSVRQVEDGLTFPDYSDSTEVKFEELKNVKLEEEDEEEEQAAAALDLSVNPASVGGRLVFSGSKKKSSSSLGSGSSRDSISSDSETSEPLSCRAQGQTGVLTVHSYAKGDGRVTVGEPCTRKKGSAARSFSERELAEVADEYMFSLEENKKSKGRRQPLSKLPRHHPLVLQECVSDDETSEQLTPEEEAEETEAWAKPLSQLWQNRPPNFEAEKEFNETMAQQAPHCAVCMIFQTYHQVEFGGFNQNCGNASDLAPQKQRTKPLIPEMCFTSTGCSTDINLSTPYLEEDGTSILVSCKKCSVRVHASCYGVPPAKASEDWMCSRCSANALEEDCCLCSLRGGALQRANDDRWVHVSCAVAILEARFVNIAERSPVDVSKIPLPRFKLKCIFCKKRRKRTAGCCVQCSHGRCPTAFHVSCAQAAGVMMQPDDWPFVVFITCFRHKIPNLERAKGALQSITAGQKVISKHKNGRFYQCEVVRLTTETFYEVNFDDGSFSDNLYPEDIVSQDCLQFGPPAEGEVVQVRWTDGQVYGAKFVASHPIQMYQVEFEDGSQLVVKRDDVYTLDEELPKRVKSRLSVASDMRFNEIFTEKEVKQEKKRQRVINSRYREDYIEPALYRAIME
Beta-galactosidase, sequence (Q8VNN2 whole entry): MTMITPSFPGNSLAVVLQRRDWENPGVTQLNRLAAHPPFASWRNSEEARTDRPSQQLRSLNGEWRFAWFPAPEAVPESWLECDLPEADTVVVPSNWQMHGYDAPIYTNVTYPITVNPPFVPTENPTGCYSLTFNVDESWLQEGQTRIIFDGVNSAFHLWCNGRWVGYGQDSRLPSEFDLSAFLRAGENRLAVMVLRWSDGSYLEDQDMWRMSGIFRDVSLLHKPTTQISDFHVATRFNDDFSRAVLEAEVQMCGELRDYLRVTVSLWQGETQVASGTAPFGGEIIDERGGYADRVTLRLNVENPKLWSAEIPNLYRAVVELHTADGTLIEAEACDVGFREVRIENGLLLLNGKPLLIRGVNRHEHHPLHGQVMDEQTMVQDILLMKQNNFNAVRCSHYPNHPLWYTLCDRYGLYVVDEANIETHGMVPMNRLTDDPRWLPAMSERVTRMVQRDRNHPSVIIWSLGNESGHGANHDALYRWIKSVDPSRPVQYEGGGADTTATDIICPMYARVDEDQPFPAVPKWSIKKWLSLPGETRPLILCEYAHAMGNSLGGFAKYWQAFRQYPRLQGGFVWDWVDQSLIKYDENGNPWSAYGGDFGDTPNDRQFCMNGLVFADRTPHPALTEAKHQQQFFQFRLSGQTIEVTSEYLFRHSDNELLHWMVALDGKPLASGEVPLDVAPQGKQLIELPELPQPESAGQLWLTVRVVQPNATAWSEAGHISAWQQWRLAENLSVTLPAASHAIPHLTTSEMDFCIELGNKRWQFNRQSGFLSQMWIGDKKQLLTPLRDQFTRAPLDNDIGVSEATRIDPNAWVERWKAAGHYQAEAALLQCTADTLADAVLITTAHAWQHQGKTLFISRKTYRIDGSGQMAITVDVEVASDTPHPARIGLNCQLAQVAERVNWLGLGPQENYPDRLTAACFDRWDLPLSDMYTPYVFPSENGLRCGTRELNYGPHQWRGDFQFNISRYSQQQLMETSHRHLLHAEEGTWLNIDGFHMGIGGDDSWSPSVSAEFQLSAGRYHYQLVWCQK
Lysine-specific demethylase 4C, sequence (Q9H3R0 whole entry): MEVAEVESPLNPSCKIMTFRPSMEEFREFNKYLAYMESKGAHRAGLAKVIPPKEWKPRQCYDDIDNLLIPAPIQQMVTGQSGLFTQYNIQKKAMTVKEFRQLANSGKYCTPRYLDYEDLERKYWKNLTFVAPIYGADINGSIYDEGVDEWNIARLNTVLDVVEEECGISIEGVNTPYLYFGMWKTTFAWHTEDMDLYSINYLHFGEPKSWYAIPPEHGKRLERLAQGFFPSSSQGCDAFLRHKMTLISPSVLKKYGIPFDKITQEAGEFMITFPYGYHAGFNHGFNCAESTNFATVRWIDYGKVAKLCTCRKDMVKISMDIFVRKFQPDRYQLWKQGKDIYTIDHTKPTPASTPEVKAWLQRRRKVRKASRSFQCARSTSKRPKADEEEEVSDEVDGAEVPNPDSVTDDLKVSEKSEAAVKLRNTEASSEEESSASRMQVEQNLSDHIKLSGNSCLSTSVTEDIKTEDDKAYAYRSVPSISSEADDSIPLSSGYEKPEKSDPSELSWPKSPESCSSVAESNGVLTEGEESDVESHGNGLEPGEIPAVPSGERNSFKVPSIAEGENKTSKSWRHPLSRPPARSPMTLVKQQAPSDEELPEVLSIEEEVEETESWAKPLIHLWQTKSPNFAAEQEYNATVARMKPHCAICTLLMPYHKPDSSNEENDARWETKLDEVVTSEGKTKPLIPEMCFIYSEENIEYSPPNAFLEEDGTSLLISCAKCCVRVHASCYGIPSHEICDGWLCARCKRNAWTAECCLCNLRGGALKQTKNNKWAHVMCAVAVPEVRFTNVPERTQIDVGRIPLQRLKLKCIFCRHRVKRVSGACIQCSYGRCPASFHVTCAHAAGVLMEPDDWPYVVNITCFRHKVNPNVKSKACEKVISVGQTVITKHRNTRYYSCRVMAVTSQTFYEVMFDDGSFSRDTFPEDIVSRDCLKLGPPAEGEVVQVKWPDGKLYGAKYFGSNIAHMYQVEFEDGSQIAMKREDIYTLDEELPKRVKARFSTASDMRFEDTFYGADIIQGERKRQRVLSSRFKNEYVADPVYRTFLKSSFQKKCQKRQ
Intestinal-type alkaline phosphatase (Mus musculus, UniProt P24822), sequence (P24822 whole entry): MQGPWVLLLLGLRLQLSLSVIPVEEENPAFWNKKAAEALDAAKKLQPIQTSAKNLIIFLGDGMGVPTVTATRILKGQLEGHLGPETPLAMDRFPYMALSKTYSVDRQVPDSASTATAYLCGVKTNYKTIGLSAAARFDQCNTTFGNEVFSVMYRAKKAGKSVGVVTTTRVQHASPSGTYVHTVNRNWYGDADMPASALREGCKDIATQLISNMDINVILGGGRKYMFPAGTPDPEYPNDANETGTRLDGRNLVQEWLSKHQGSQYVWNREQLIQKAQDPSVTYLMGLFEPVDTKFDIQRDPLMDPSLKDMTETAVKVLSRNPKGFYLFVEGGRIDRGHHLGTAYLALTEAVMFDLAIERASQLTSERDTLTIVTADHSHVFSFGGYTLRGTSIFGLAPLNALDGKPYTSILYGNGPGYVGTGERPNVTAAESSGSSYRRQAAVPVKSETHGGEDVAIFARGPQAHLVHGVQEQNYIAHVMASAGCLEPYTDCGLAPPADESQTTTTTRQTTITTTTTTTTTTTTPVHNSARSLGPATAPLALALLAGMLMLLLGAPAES
Cytochrome P450 3A4, sequence (P08684 whole entry): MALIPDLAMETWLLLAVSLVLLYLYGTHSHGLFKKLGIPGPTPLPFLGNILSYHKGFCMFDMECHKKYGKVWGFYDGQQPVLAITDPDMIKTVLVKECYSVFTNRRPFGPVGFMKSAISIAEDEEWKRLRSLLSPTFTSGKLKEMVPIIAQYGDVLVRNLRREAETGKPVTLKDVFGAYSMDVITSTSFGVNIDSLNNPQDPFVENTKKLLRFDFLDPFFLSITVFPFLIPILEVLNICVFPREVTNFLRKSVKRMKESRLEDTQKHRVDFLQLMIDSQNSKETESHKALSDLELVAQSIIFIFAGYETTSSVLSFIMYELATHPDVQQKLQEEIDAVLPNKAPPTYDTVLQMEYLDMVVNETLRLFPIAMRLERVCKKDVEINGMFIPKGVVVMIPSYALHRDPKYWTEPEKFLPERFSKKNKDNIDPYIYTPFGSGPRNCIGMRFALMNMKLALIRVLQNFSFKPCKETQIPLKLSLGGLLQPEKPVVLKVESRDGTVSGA

As for `O=C(Cc1ccc(Cl)c(Cl)c1)NNC(=S)NCC1CCCO1` (stereo not given), the EC50 is 17.5 µM (active) in series [1], 20.2 µM (active) in series [2] and 14.3 µM (active) in series [4]. Besides, the 50% inhibitory concentration (IC50) in [3] was 49.6 µM (active).
On to `COC(=O)C(Cc1ccc(OC(=O)c2ccc(C(F)(F)F)cc2)cc1)N1Cc2ccccc2C1=O` (stereo not given), for which, in series [5], the AC50 result was “inconclusive”. For the same molecule, the half-maximal inhibitory concentration (IC50) in series [6] was > 100 µM (active). In addition, the CC50 in series [7] is 37.4 µM (active).
Turning to `CC(=O)C1=C(c2ccccc2)N(C(C)=O)n2c(C)nnc2S1`, the values for the AC50 in series [8] and in [14] were 0.8 µM (active) and 56.3 µM (active), respectively. For the same molecule, the EC50 in [9] is 26 µM (inactive); in [10], 10.7 µM (active); in series [12], 16.8 µM (active); in [13], 191 µM (active); in series [15], 20.8 µM (inactive). The IC50 in [11] is 11.3 µM (active).
